According to ChEMBL document CHEMBL5223130, “Targeting SARS-CoV-2 Main Protease for Treatment of COVID-19: Covalent Inhibitors Structure-Activity Relationship Insights and Evolution Perspectives” (J Med Chem, 2022):

How the values were obtained:
[1] = test system: SARS-CoV-2; type: functional, organism-based, Vero E6; settings: Severe acute respiratory syndrome coronavirus 2, 107, Vero C1008
[2] = test system: SARS-CoV-2; type: functional, organism-based, Vero E6; settings: Severe acute respiratory syndrome coronavirus 2, Vero C1008

Row | Structure (SMILES) | EC50 [1] [nM] | EC50 [2] [nM]
1 | O=C[C@H](C[C@@H]1CCNC1=O)NC(=O)[C@@H]1[C@H]2CCC[C@H]2CN1C(=O)COc1ccc(Cl)cc1Cl | 540 | 
2 | O=c1c(O)c(-c2cc(O)c(O)c(O)c2)oc2cc(O)cc(O)c12 [MYRICETIN] |  | 8000
3 | COc1ccc(OCC(=O)N2C[C@H]3[C@@H]([C@H]2C(=O)N[C@H](C=O)C[C@@H]2CCNC2=O)C3(C)C)cc1 | 860 | 
